{
  "source": "patent US6534676B2",
  "about": "“Method to treat chronic heart failure and/or elevated cholesterol levels using 3,5-diiodothyropropionic acid and method to prepare same” (The Arizona Board of Regents on Behalf of the University of …, priority 2001, dated 2003)",
  "key": {"[1]": {"experiment": "Double-blind DITPA versus placebo study in patients with congestive heart failure: clinical effects and tolerability", "assay_type": "in vivo, human", "details": "for Weight: baseline 98.7 ± 6.6, mean ± SE; for NY Heart Association functional class: baseline 2.5 ± 0.2; for Diastolic Blood Pressure: baseline 75.8 ± 4.2; for Heart Rate: baseline 81.3 ± 4.4; for Systolic Blood Pressure: baseline 122.8 ± 4.9", "experimental": "In clinical trials discussed below wherein DITPA was orally administered to volunteers and patients, the DITPA was mixed under the supervision of a registered pharmacist with lactose and packed into gelatin capsules containing 50 mg of the active ingredient. Identical capsules were packed with lactose to serve as placebo medication.\nPatients were eligible for enrollment in these clinical studies if they had symptoms of heart failure and an ejection fraction of less than 35%. Patients were required to be in sinus rhythm. Treatment with digitalis, angiotensin converting enzyme inhibitors, and diuretics were allowed, but β-adrenergic blocking agents were not permitted.\nThree patients in the placebo group and one patient receiving DITPA were taking an HMG-CoA reductase inhibitor. Patients were excluded from the study if they were receiving amiodarone, had unstable angina, myocardial infarction within 6 months, significant aortic stenosis, hepatic or renal insufficiency, anemia (hematocrit<30%), pre-existent thyroid disease, sensitivity to iodine, active cancer or any other life-threatening disease.\n(§1) All patients were hospitalized before initiating treatment and a right heart catheterization, radionuclide ejection fraction and echocardiogram were performed. Serum samples were drawn for measurement of thyrotropin, total T4, free T4, and reverse T3.\n(§2) DITPA cross-reacted with antibodies for detection of T3, which consequently was not measured. Renal and hepatic function tests also were performed. Patients were randomly assigned in double-blind fashion to receive either DITPA at a dosage of 1.875 mg/kg daily or placebo in two or three divided doses. For the first four days of drug administration patients were monitored on a telemetry unit. Thereafter, weekly electrocardiograms were performed and patients were examined for changes in thyroid or cardiac status or evidence of drug toxicity.\n(§3) At the end of two weeks an echocardiogram was obtained. If there was no clinical evidence of progression of heart failure or development of an arrhythmia the dose of DITPA was increased to 3.75 mg/kg daily. After an additional two weeks of treatment with the higher dosage of the drug patients were readmitted to the hospital and the tests performed in the initial evaluation were repeated.\n(§4) M-mode, two-dimensional, and Doppler echocardiograms were obtained with an ultrasonographic system equipped with a […] transducer (GE VingMed, Milwaukee, Wis.) according to the recommendation of the American Society of Echocardiography. Ejection fraction was measured by gated radionuclide myocardial imaging.\nTwenty-two patients underwent the initial right heart catheterization and were randomized to receive the subject drug or placebo. Nineteen patients completed the study (mean age 61.6, range 47 to 76). Patient functional classes, according to the New York Heart Association classification were II (n=12), III (n=7). One patient had dilated cardiomyopathy. The remaining patients had coronary artery disease, which was considered to be the most likely etiology of congestive heart failure. There was one death in a patient receiving placebo. One patient in the DITPA group was withdrawn because of abdominal pain and subsequently found to have cholelithiasis."}, "[2]": {"experiment": "Heart failure patients: echocardiography", "assay_type": "in vivo, human", "details": "for Shortening velocity: baseline 0.69 ± 0.15; for Ratio of early to late filling: baseline 1.10 ± 0.21; for LV diastolic dimension: baseline 6.84 ± 0.33; for Fractional shortening: baseline 17.0 ± 3.5; for Isovolumic relaxation time: baseline 92.2 ± 9.5; for LV mass: baseline 495.8 ± 45.9; for LV end-systolic dimension: baseline 5.72 ± 0.41", "experimental": "as §2, §3, §4"}, "[3]": {"experiment": "Heart failure patients: right heart catheterization hemodynamics", "assay_type": "in vivo, human", "experimental": "as §1, §2, §3\n(§5) Right heart catheterization was performed after the patient had been fasted overnight; no premedication was given. Pulmonary artery, pulmonary capillary wedge and right heart pressures were measured with a 7 Fr Swan-Ganz catheter introduced into the right femoral vein. Blood pressures were recorded with an automated arm cuff system. After an initial stabilization period of 20 to 30 minutes, the resting hemodynamic measurements were obtained. Thermodilution cardiac output measurements were averaged from five recordings after discarding the highest and lowest values. All blood tests were performed in the Clinical Pathology Laboratory at the Southern Arizona Veterans Administration Health Care System."}, "[4]": {"experiment": "Heart failure patients: serum thyroid function tests", "assay_type": "in vivo, human", "details": "for Thyrotropin: baseline 2.47 ± 0.6; for FreeT4: baseline 1.19 ± 0.1; for ReverseT3: baseline 197 ± 27", "experimental": "as §1, §2, §3, §5"}, "[5]": {"experiment": "Cardiac performance, chronotropic and metabolic effect compared with L-thyroxine (background)", "assay_type": "in vivo", "excerpt": "Because of potential adverse effects of thyroid hormone, such as metabolic stimulation and tachycardia, what is required are thyroid hormone analogs with fewer undesirable side effects. […] Like thyroid hormone, DITPA binds to nuclear T3 receptors of the c-erbA proto-oncogene family."}, "[6]": {"system": "nuclear T3 receptors of the c-erbA proto-oncogene family", "details": "background statement; cited from earlier work"}, "[7]": {"details": "heart failure patients, after 2 weeks (1.875 mg/kg daily)"}, "[8]": {"details": "heart failure patients, after 4 weeks (3.75 mg/kg daily)"}, "[9]": {"details": "echocardiography, after 2 weeks (1.875 mg/kg daily)"}, "[10]": {"details": "echocardiography, after 4 weeks (3.75 mg/kg daily)"}, "[11]": {"details": "serum, after 2 weeks (1.875 mg/kg daily)"}, "[12]": {"details": "serum, after 4 weeks (3.75 mg/kg daily)"}},
  "data": [
    {"compound": "O=C(O)CCc1cc(I)c(Oc2ccc(O)cc2)c(I)c1", "note": "[DITPA, 3,5-Diiodothyropropionic acid]", "values": [
      {"measurement": "arrhythmias", "setting": "[1]; heart failure patients", "value": "No arrhythmias were noted"},
      {"measurement": "clinical manifestations of hyperthyroidism", "setting": "[1]; heart failure patients", "value": "not observed"},
      {"measurement": "frequency or severity of anginal attacks", "setting": "[1]; heart failure patients", "value": "no increase in frequency or severity of anginal attacks"},
      {"measurement": "Weight", "setting": "[1]; heart failure patients n=9, after 4 weeks (last 2 weeks 3.75 mg/kg daily)", "value": "94.7 ± 18.8", "unit": "kg"},
      {"measurement": "Weight", "setting": "[1]; heart failure patients n=9, oral, after 2 weeks (1.875 mg/kg daily)", "value": "98.2 ± 19.3", "unit": "kg"},
      {"measurement": "decrease in body weight", "setting": "[1]; heart failure patients, DITPA group, after 4 weeks, P=0.059 vs placebo", "value": 4, "unit": "kg"},
      {"measurement": "NY Heart Association functional class", "setting": "[1]; [7]", "value": "2.4 ± 0.2"},
      {"measurement": "Diastolic Blood Pressure", "setting": "[1]; [7]", "value": "65.7 ± 3.3", "unit": "mm Hg"},
      {"measurement": "Heart Rate", "setting": "[1]; [7]", "value": "83.4 ± 6.5", "unit": "beats/min"},
      {"measurement": "Systolic Blood Pressure", "setting": "[1]; [7]", "value": "116.2 ± 7.4", "unit": "mm Hg"},
      {"measurement": "NY Heart Association functional class", "setting": "[1]; [8]", "value": "2.5 ± 0.2"},
      {"measurement": "Radionuclide Ejection Fraction", "setting": "[1]; heart failure patients, after 4 weeks (3.75 mg/kg daily), baseline 18.1 ± 2.4", "value": "20.6 ± 3.2", "unit": "%"},
      {"measurement": "Diastolic Blood Pressure", "setting": "[1]; [8]", "value": "66.4 ± 3.6", "unit": "mm Hg"},
      {"measurement": "Heart Rate", "setting": "[1]; [8]", "value": "82.2 ± 4.7", "unit": "beats/min"},
      {"measurement": "Systolic Blood Pressure", "setting": "[1]; [8]", "value": "119.1 ± 6.1", "unit": "mm Hg"},
      {"measurement": "tolerability", "setting": "[1]; patients with ischemic heart disease / heart failure", "value": "well tolerated"},
      {"measurement": "Shortening velocity", "setting": "[2]; [9]", "value": "0.55 ± 0.09", "unit": "circ/sec"},
      {"measurement": "Ratio of early to late filling", "setting": "[2]; [9]", "value": "0.89 ± 0.17"},
      {"measurement": "LV diastolic dimension", "setting": "[2]; [9]", "value": "6.83 ± 0.35", "unit": "cm"},
      {"measurement": "Fractional shortening", "setting": "[2]; [9]", "value": "13.8 ± 2.4", "unit": "%"},
      {"measurement": "Isovolumic relaxation time", "setting": "[2]; echocardiography, after 2 weeks (1.875 mg/kg daily), contrast baseline to 2 weeks P = 0.051", "value": "87.5 ± 9.2^++ msec"},
      {"measurement": "LV mass", "setting": "[2]; [9]", "value": "474.2 ± 38.2", "unit": "g"},
      {"measurement": "Shortening velocity", "setting": "[2]; [10]", "value": "0.57 ± 0.10", "unit": "circ/sec"},
      {"measurement": "Ratio of early to late filling", "setting": "[2]; [10]", "value": "1.16 ± 0.26"},
      {"measurement": "LV end-systolic dimension", "setting": "[2]; [10]", "value": "6.01 ± 0.33", "unit": "cm"},
      {"measurement": "LV diastolic dimension", "setting": "[2]; [10]", "value": "6.96 ± 0.30", "unit": "cm"},
      {"measurement": "Fractional shortening", "setting": "[2]; [10]", "value": "13.8 ± 2.5", "unit": "%"},
      {"measurement": "Isovolumic relaxation time", "setting": "[2]; echocardiography, after 4 weeks (3.75 mg/kg daily), ANOVA P 0.045", "value": "84.4 ± 8.5", "unit": "ms"},
      {"measurement": "LV mass", "setting": "[2]; [10]", "value": "477.9 ± 40.5", "unit": "g"},
      {"measurement": "LV end-systolic dimension", "setting": "[2]; heart failure patients n=9, echocardiography, after 2 weeks (1.875 mg/kg daily)", "value": "5.87 ± 0.30", "unit": "cm"},
      {"measurement": "Cardiac Index", "setting": "[3]; after 4 weeks, baseline 2.10 ± 0.14, P 0.04 vs placebo", "value": "2.54 ± 0.16", "unit": "liters/min/m^2"},
      {"measurement": "Mean Arterial Pressure", "setting": "[3]; after 4 weeks, baseline 96.2 ± 6.7", "value": "92.0 ± 5.7", "unit": "mm Hg"},
      {"measurement": "Systemic Vascular Resistance", "setting": "[3]; after 4 weeks, baseline 3,465 ± 319, P 0.02 vs placebo", "value": "2,644 ± 257 dynes x sec x cm^−5"},
      {"measurement": "Heart Rate", "setting": "[3]; heart failure patients n=9, right heart catheterization, after 4 weeks of treatment, baseline 84.8 ± 4.9", "value": "89.6 ± 5.3"},
      {"measurement": "Right atrial pressure", "setting": "[3]; right heart catheterization, after 4 weeks, baseline 8.1 ± 1.7", "value": "10.5 ± 1.8", "unit": "mm Hg"},
      {"measurement": "Pulmonary artery pressures, Wedge", "setting": "[3]; right heart catheterization, after 4 weeks, baseline 24.0 ± 3.9", "value": "21.8 ± 2.75", "unit": "mm Hg"},
      {"measurement": "Pulmonary artery pressures, Diastolic", "setting": "[3]; right heart catheterization, after 4 weeks, baseline 25.1 ± 4.1", "value": "25.4 ± 2.5", "unit": "mm Hg"},
      {"measurement": "Pulmonary artery pressures, Mean", "setting": "[3]; right heart catheterization, after 4 weeks, baseline 30.1 ± 5.0", "value": "33.4 ± 3.2", "unit": "mm Hg"},
      {"measurement": "Pulmonary artery pressures, Systolic", "setting": "[3]; right heart catheterization, after 4 weeks, baseline 45.0 ± 6.2", "value": "49.1 ± 5.3", "unit": "mm Hg"},
      {"measurement": "Cardiac Output", "setting": "[3]; thermodilution, after 4 weeks, baseline 4.50 ± 0.36, P 0.07 vs placebo", "value": "5.30 ± 0.36", "unit": "L/min"},
      {"measurement": "Thyrotropin", "setting": "[4]; heart failure patients n=9, serum, after 2 weeks (1.875 mg/kg daily)", "value": "0.04 ± 01^++ mU/L"},
      {"measurement": "FreeT4", "setting": "[4]; [11]", "value": "1.17 ± 0.1^ ng/dL"},
      {"measurement": "ReverseT3", "setting": "[4]; [11]", "value": "477 ± 83^++ ng/dL"},
      {"measurement": "FreeT4", "setting": "[4]; [12]", "value": "1.17 ± 0.15", "unit": "ng/dL"},
      {"measurement": "Thyrotropin", "setting": "[4]; [12]", "value": "0.018 ± 0.0004", "unit": "mU/L"},
      {"measurement": "ReverseT3", "setting": "[4]; [12]", "value": "559 ± 108", "unit": "ng/dL"},
      {"measurement": "chronotropic effect relative to L-thyroxine", "setting": "[5]; at increased cardiac performance", "value": "approximately half of the chronotropic effect"},
      {"measurement": "metabolic stimulation relative to L-thyroxine", "setting": "[5]; in vivo", "value": "less metabolic stimulation than L-thyroxine"},
      {"measurement": "binding to nuclear T3 receptors", "setting": "[6]", "value": "binds"}
    ]}
  ]
}
